Values quoted from earlier work in US20250122241A1, “CYCLIC PEPTIDE IMMUNOMODULATORS” (BRISTOL-MYERS SQUIBB COMPANY, priority 2021, published 2025).

Details: oral administration; extensive first-pass metabolism in the liver

CCCC1O[C@@H]2C[C@H]3[C@@H]4CCC5=CC(=O)C=C[C@]5(C)[C@H]4[C@@H](O)C[C@]3(C)[C@]2(C(=O)CO)O1 (stereo partly shown) [budesonide]
bioavailability: about 10%
